Test [1] concerns Human alphaherpesvirus 2. In words: Antiviral activity against Herpes simplex virus 2 assessed as inhibition of virus-induced cytopathic effect after 72 hrs by two-fold dilution method. In kind it is functional. The conditions noted are these: Human alphaherpesvirus 2, 72 h. A general note: Damage to the host cells serves as the signal in cytopathic effect assays.
The test system of another test is Equine rhinovirus. In words: Antiviral activity against Equine rhinovirus assessed as inhibition of virus-induced cytopathic effect after 48 hrs by two-fold dilution method.
The test system of test [2] is Human alphaherpesvirus 2. In words: Antiviral activity against Herpes simplex virus 2 assessed as inhibition of virus-induced cytopathic effect at 50 ug/ml after 72 hrs by two-fold dilution method. In kind it is functional, organism-based.

Each structure is given as a SMILES string. In brackets after ≈: the same amount, converted by molar mass. Activity calls are given as the source filed them. The calls are words filed in the database; no cut-off is given here.

Regarding `CCC(=O)C(CCCCCCOc1cc(Cl)cc(OC)c1)C(=O)CC`, the MIC in the test on Human alphaherpesvirus 2 [1] was 12 µg/mL (≈ 32.5 µM); with Equine rhinovirus it was 6 µg/mL (≈ 16.3 µM).

Regarding `CCC(=O)C(CCCCCCOc1ccccc1[N+](=O)[O-])C(=O)CC`, the MIC in the test on Human alphaherpesvirus 2 [1] and in the test on Equine rhinovirus was 6 µg/mL (≈ 17.2 µM) in each case.

Consider `CCC(=O)C(CCCCCCCOc1ccc(OC)cc1Cl)C(=O)CC`, for which the MIC in the test with Human alphaherpesvirus 2 [1] stood at 6 µg/mL (≈ 15.7 µM); in the test with Equine rhinovirus, 3 µg/mL (≈ 7.83 µM).

For the molecule `CCOC(=O)c1ccc(OCCCCCCC(C(=O)CC)C(=O)CC)cc1`, the values for the MIC in the test on Human alphaherpesvirus 2 [1] and in the test with Equine rhinovirus were 3 µg/mL (≈ 7.97 µM) and 6 µg/mL (≈ 15.9 µM), respectively.

For the molecule `CCC(=O)C(CCCCCCOc1ccc(OC)cc1Br)C(=O)CC`, the MIC with Human alphaherpesvirus 2 [1] is 6 µg/mL (≈ 14.5 µM); in the test on Equine rhinovirus, 3 µg/mL (≈ 7.26 µM).

Take `CCC(=O)C(CCCCCCCOc1ccc2c(c1)OCO2)C(=O)CC`: the inhibition result in the test on Human alphaherpesvirus 2 [2] is “inactive”. Moreover, the MIC in the test on Equine rhinovirus was 6 µg/mL (≈ 16.6 µM).

On to `CCC(=O)C(CCCCCCCCCCOc1ccc(OC)cc1Cl)C(=O)CC`, for which the results for the MIC with Human alphaherpesvirus 2 [1] and in the test with Equine rhinovirus were 6 µg/mL (≈ 14.1 µM) and 12 µg/mL (≈ 28.2 µM), respectively.

On to `COc1ccc(OCCCCCCC(C(=O)C(C)(C)C)C(=O)C(C)(C)C)c(Cl)c1`, for which the MIC with Human alphaherpesvirus 2 [1] was found to be 6 µg/mL (≈ 14.1 µM).

On to `CCC(=O)C(CCCCCCOc1cc(Cl)c(OC)cc1Cl)C(=O)CC`, for which the MIC with Human alphaherpesvirus 2 [1] stood at 6 µg/mL (≈ 14.9 µM); with Equine rhinovirus it was 3 µg/mL (≈ 7.44 µM).

In the case of `CCC(=O)C(CCCCCCOc1ccccc1F)C(=O)CC`, the values for the MIC with Human alphaherpesvirus 2 [1] and in the test with Equine rhinovirus were 12 µg/mL (≈ 37.2 µM) and 3 µg/mL (≈ 9.3 µM), respectively.

In the case of `CCC(=O)C(CCCCCCOc1cccc(I)c1)C(=O)CC`, the MIC with Human alphaherpesvirus 2 [1] and in the test on Equine rhinovirus was 6 µg/mL (≈ 13.9 µM) each time.

In the case of `CCC(=O)C(CCCCCCOc1ccc(C(C)=O)cc1OC)C(=O)CC`, the MIC in the test on Human alphaherpesvirus 2 [1] is 12 µg/mL (≈ 31.9 µM).

On to `COc1ccc(OCCCCCCC(C(C)=O)C(C)=O)c(Cl)c1`, for which the MIC with Human alphaherpesvirus 2 [1] was 12 µg/mL (≈ 35.2 µM).

For the molecule `CCC(=O)C(CCCCCCOc1cccc(C(F)(F)F)c1)C(=O)CC`, the inhibition entry in the test on Human alphaherpesvirus 2 [2] is “inactive”.

Take `CCC(=O)C(CCCCCOc1ccc2c(c1)OCO2)C(=O)CC`: the inhibition entry with Human alphaherpesvirus 2 [2] is “inactive”.

For the molecule `CCC(=O)C(CCCCCCOc1ccc(OC(=O)c2ccc(OC)cc2)cc1)C(=O)CC`, the inhibition result with Human alphaherpesvirus 2 [2] is “inactive”. Moreover, in the test with Equine rhinovirus, the MIC was found to be 6 µg/mL (≈ 13.2 µM).

On to `CCC(=O)C(CCCCCCOc1ccc(O)cc1)C(=O)CC`, for which the MIC amounted to 3 µg/mL (≈ 9.36 µM) with Human alphaherpesvirus 2 [1] and 12 µg/mL (≈ 37.4 µM) in the test with Equine rhinovirus.

Consider `CCC(=O)C(CCCCCCOc1ccc(OC(=O)CCCN2CCOCC2)cc1)C(=O)CC`, for which the MIC in the test on Human alphaherpesvirus 2 [1] and in the test with Equine rhinovirus was 12 µg/mL (≈ 25.2 µM) in each case.

With `CCC(=O)C(CCCCCCOc1cccc(N(C)C)c1)C(=O)CC`, in the test on Human alphaherpesvirus 2 [2], the inhibition result is “inactive”. Besides, in the test on Equine rhinovirus, the MIC came out at 6 µg/mL (≈ 17.3 µM).

With `CCC(=O)C(CCCCCCCCCOc1ccc(OC)cc1Cl)C(=O)CC`, the MIC came to 12 µg/mL (≈ 29.2 µM) with Human alphaherpesvirus 2 [1] and 6 µg/mL (≈ 14.6 µM) with Equine rhinovirus.

For the molecule `CCC(=O)C(CCCCCCOc1ccc(Cl)cc1)C(=O)CC`, the inhibition result in the test with Human alphaherpesvirus 2 [2] is “inactive”. Besides, the MIC with Equine rhinovirus is 3 µg/mL (≈ 8.85 µM).

Regarding `CCC(=O)C(CCCCCCOc1ccc(Cl)cc1Cl)C(=O)CC`, the MIC with Human alphaherpesvirus 2 [1] is 3 µg/mL (≈ 8.04 µM).

On to `CCC(=O)C(CCCCCCCCOc1ccc2c(c1)OCO2)C(=O)CC`, for which the inhibition result in the test on Human alphaherpesvirus 2 [2] was “inactive”.

For the molecule `CCC(=O)C(CCCCCCOc1ccccc1I)C(=O)CC`, the inhibition result with Human alphaherpesvirus 2 [2] was “inactive”. Also, the MIC with Equine rhinovirus was 12 µg/mL (≈ 27.9 µM).

With `CCC(=O)C(CCCCCCOc1ccc2c(c1)OCO2)C(=O)CC`, in the test with Human alphaherpesvirus 2 [2], the inhibition entry is “inactive”. Besides, the MIC in the test with Equine rhinovirus turned out to be 3 µg/mL (≈ 8.61 µM).

Take `CCC(=O)C(CCCCCCOc1ccc(SC)cc1)C(=O)CC`: the inhibition result in the test with Human alphaherpesvirus 2 [2] was “inactive”. Moreover, the MIC in the test with Equine rhinovirus is 3 µg/mL (≈ 8.56 µM).

For the molecule `CCC(=O)C(CCCCCOc1ccc(OC)cc1Cl)C(=O)CC`, the MIC in the test with Human alphaherpesvirus 2 [1] and with Equine rhinovirus was 6 µg/mL (≈ 16.9 µM) in each case.

`CCC(=O)C(CCCCCCOc1ccc(OC(=O)c2ccc(C)cc2)cc1)C(=O)CC`: the inhibition result with Human alphaherpesvirus 2 [2] is “inactive”. In the test on Equine rhinovirus, the MIC is 12 µg/mL (≈ 27.4 µM).

In the case of `CCC(=O)C(CCCCCCOc1ccc(O)cc1Cl)C(=O)CC`, the MIC in the test on Human alphaherpesvirus 2 [1] amounted to 6 µg/mL (≈ 16.9 µM).

For `CCC(=O)C(CCCCCCOc1ccc(OCc2ccccc2)cc1)C(=O)CC`, the MIC in the test with Human alphaherpesvirus 2 [1] and in the test on Equine rhinovirus was 1.5 µg/mL (≈ 3.65 µM) in each case.

Turning to `CCC(=O)C(CCCCCCOc1ccc(F)cc1Cl)C(=O)CC`, the MIC amounted to 6 µg/mL (≈ 16.8 µM) with Human alphaherpesvirus 2 [1] and 3 µg/mL (≈ 8.41 µM) in the test on Equine rhinovirus.

As for `CCC(=O)C(CCCCCCOc1ccc(OCCN(CC)CC)cc1)C(=O)CC`, in the test with Human alphaherpesvirus 2 [2], the inhibition result is “inactive”. The MIC in the test with Equine rhinovirus worked out at 25 µg/mL (≈ 59.6 µM).

In the case of `CCC(=O)C(CCCCCCOc1ccc(S(N)(=O)=O)cc1)C(=O)CC`, the MIC in the test on Human alphaherpesvirus 2 [1] was 12 µg/mL (≈ 31.3 µM).

As to `CCC(=O)C(CCCCCCOc1ccc(I)cc1)C(=O)CC`, the MIC was 6 µg/mL (≈ 13.9 µM) in the test with Human alphaherpesvirus 2 [1] and 3 µg/mL (≈ 6.97 µM) in the test with Equine rhinovirus.

As to `CCC(=O)C(CCCCCCOc1ccc(OC(=O)c2ccccc2)cc1)C(=O)CC`, the inhibition entry in the test with Human alphaherpesvirus 2 [2] was “inactive”.

Turning to `CCC(=O)C(CCOCCOc1ccc(OC)cc1Cl)C(=O)CC`, the MIC in the test with Human alphaherpesvirus 2 [1] is 12 µg/mL (≈ 33.6 µM); in the test on Equine rhinovirus it was 25 µg/mL (≈ 70.1 µM).

For `CCC(=O)C(CCCCCCOc1ccc(OC)cc1)C(=O)CC`, the MIC with Human alphaherpesvirus 2 [1] stood at 25 µg/mL (≈ 74.7 µM); in the test on Equine rhinovirus it was 6 µg/mL (≈ 17.9 µM).

For `CCC(=O)C(CCCCCCOc1ccccc1C(F)(F)F)C(=O)CC`, the MIC in the test with Human alphaherpesvirus 2 [1] and in the test on Equine rhinovirus was 6 µg/mL (≈ 16.1 µM) in each case.

As for `CCC(=O)C(CCCCCCOc1ccc(OC)cc1[N+](=O)[O-])C(=O)CC`, the MIC came out at 6 µg/mL (≈ 15.8 µM) in the test with Human alphaherpesvirus 2 [1] and 3 µg/mL (≈ 7.91 µM) in the test with Equine rhinovirus.

Take `CCC(=O)C(CCCCCCOc1ccccc1Cl)C(=O)CC`: the MIC came out at 6 µg/mL (≈ 17.7 µM) with Human alphaherpesvirus 2 [1] and 3 µg/mL (≈ 8.85 µM) in the test with Equine rhinovirus.

On to `CCC(=O)C(CCCCCCOc1ccccc1)C(=O)CC`, for which the figures for the MIC in the test on Human alphaherpesvirus 2 [1] and in the test on Equine rhinovirus were 1.5 µg/mL (≈ 4.93 µM) and 6 µg/mL (≈ 19.7 µM), respectively.

Consider `CCC(=O)C(CCCCCCOc1ccc(Br)cc1)C(=O)CC`, for which the MIC in the test on Human alphaherpesvirus 2 [1] is 6 µg/mL (≈ 15.7 µM); in the test on Equine rhinovirus, 3 µg/mL (≈ 7.83 µM).

Consider `CCC(=O)C(CCCCCCOc1c(F)c(F)c(F)c(F)c1F)C(=O)CC`, for which the MIC with Human alphaherpesvirus 2 [1] was found to be 12 µg/mL (≈ 30.4 µM).

Turning to `CCC(=O)C(CCCCCCOc1ccc(C(=O)O)cc1)C(=O)CC`, the inhibition entry in the test with Human alphaherpesvirus 2 [2] was “inactive”. Besides, the MIC in the test with Equine rhinovirus worked out at 6 µg/mL (≈ 17.2 µM).

Consider `CCC(=O)C(CCCCCCCCOc1ccc(OC)cc1Cl)C(=O)CC`, for which the MIC with Human alphaherpesvirus 2 [1] and with Equine rhinovirus was 3 µg/mL (≈ 7.56 µM) in each case.

Consider `CCC(=O)C(CCCCCCOc1c(I)cc(I)cc1I)C(=O)CC`, for which the MIC in the test on Human alphaherpesvirus 2 [1] stood at 6 µg/mL (≈ 8.8 µM); in the test on Equine rhinovirus, 12 µg/mL (≈ 17.6 µM).

Turning to `CCC(=O)C(CCCCCCOc1ccc(OCc2ccccc2)cc1Cl)C(=O)CC`, the MIC with Human alphaherpesvirus 2 [1] and in the test on Equine rhinovirus was 3 µg/mL (≈ 6.74 µM) in each case.

For `CCOC(=O)C(CCCCCCOc1ccc(OC)cc1Cl)C(C)=O` (stereo not given), the inhibition result with Human alphaherpesvirus 2 [2] was “inactive”. The MIC in the test with Equine rhinovirus came to 6 µg/mL (≈ 16.2 µM).

With `CCC(=O)C(CCCCCCOc1ccc(F)cc1)C(=O)CC`, the MIC in the test with Human alphaherpesvirus 2 [1] and in the test with Equine rhinovirus was 3 µg/mL (≈ 9.3 µM) throughout.

Take `CCC(=O)C(CCCCCCOc1c(Cl)c(Cl)c(Cl)c(Cl)c1Cl)C(=O)CC`: the inhibition result in the test on Human alphaherpesvirus 2 [2] is “inactive”. The MIC in the test on Equine rhinovirus was 12 µg/mL (≈ 25.2 µM).

Take `CCC(=O)C(CCCCOc1ccc(OC)cc1Cl)C(=O)CC`: the inhibition entry in the test with Human alphaherpesvirus 2 [2] was “inactive”.

Consider `CCC(=O)C(CCCCCCOc1ccc(C#N)cc1)C(=O)CC`, for which the inhibition result in the test with Human alphaherpesvirus 2 [2] is “inactive”.

With `CCC(=O)C(CCCCCCOc1ccc([N+](=O)[O-])cc1Cl)C(=O)CC`, the MIC with Human alphaherpesvirus 2 [1] and in the test on Equine rhinovirus was 3 µg/mL (≈ 7.82 µM) in each case.

Turning to `CCC(=O)C(CCCCCCOc1ccc(OCCO)cc1Cl)C(=O)CC`, the MIC in the test with Human alphaherpesvirus 2 [1] was 1.5 µg/mL (≈ 3.76 µM); in the test with Equine rhinovirus, 3 µg/mL (≈ 7.52 µM).

Regarding `CCC(=O)C(CCCOc1ccc2c(c1)OCO2)C(=O)CC`, in the test with Human alphaherpesvirus 2 [2], the inhibition entry was “inactive”.

Turning to `CCC(=O)C(CCCCCCOc1ccc(Br)cc1Cl)C(=O)CC`, the MIC in the test with Human alphaherpesvirus 2 [1] and with Equine rhinovirus was 3 µg/mL (≈ 7.18 µM) in each case.

Turning to `CCC(=O)C(CCCCCCOc1ccc(CC)cc1)C(=O)CC`, the MIC with Human alphaherpesvirus 2 [1] worked out at 12 µg/mL (≈ 36.1 µM); in the test on Equine rhinovirus, 6 µg/mL (≈ 18 µM).

Values taken from ChEMBL document CHEMBL3244039, “Antiviral activity of some beta-diketones. 2. Aryloxy alkyl diketones. In vitro activity against both RNA and DNA viruses” (1977).
